From US11970463B2, “Compounds and their use” (ASTRAZENECA AB, priority 2021, dated 2024) come the findings set out here.

Data set [1] can be described thus: Solubility (Test F), McIlvaine buffer pH 6.5. Format: physicochemical. The settings on record: McIlvaine buffer pH 6.5, 25° C., 24 to 72 h, theoretical maximum 200 μM; for solubility: disodium hydrogenphosphate-citric acid (McIlvaine) buffer, 25 °C, pH 6.5, aqueous buffer, thermodynamic from solid.
A further data set addresses Human NLRP3 (Homo sapiens (Human), UniProt Q96P20).
Where [2] appears, read: Test C IC50, IL-1β release, THP-1 cells, LPS 2 μg/mL 24 h, BzATP 1 mM.

SMILES strings stand for the structures. ≈ marks a conversion by molar mass, not a printed value. Read-outs that look alike come from different tables or passages of the source.

Sequence of Human NLRP3 (Q96P20 whole entry): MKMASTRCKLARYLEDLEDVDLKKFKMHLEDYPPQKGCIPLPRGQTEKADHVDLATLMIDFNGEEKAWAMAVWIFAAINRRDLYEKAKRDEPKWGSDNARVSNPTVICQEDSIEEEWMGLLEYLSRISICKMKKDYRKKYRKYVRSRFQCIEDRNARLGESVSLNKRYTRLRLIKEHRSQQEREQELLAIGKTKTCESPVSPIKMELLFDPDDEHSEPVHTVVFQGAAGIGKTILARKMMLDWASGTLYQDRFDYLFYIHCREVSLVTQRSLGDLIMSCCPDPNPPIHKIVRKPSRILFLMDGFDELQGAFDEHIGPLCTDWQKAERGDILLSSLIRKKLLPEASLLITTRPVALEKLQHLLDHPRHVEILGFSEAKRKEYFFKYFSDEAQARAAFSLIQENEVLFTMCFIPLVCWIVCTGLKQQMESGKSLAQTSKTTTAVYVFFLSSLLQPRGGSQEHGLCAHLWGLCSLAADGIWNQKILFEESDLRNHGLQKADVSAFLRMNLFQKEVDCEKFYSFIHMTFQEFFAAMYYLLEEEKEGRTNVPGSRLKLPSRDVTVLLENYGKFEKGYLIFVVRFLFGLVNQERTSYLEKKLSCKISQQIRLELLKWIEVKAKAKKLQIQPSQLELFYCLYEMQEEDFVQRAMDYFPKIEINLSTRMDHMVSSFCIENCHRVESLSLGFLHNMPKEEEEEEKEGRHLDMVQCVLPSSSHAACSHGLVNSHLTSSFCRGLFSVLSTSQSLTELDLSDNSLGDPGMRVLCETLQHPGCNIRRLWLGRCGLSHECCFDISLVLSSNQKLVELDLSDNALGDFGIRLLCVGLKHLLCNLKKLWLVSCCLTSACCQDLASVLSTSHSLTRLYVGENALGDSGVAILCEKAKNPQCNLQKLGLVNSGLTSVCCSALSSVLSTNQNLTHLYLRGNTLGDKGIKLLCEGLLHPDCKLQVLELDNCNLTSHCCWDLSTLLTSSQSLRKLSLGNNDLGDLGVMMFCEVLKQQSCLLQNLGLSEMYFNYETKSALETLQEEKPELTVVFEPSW

As to `OC[C@@H](O)CNc1nnc(-c2cc(F)c(F)cc2O)c2ccccc12` [Example 3, (2S)-3-[[4-(4,5-difluoro-2-hydroxy-phenyl)phthalazin-1-yl]amino]propane-1,2-diol], the solubility (usually the dissolved amount per volume that the medium holds) in data set [1] amounted to 68.6 µg/mL (≈ 198 µM). Further, the IC50 (usually the concentration at which inhibition is half-maximal) against Human NLRP3 (setting [2]) stood at 474 nM. `OC[C@@H](O)CNc1nnc(-c2ccc(C(F)(F)F)cc2O)c2ccccc12` [Example 1, (2S)-3-[[4-[2-hydroxy-4-(trifluoromethyl)phenyl]phthalazin-1-yl]amino]propane-1,2-diol] gave a solubility in data set [1] of 50 µg/mL (≈ 132 µM). For the molecule `Oc1cccc(C(F)(F)F)c1-c1nnc(N[C@@H]2CCC[C@H](O)C2)c2cnccc12` (racemic) [Example 50, 2-[4-[[(1R,3S)-3-hydroxycyclohexyl]amino]pyrido[3,4-d]pyridazin-1-yl]-3-(trifluoromethyl)phenol], in data set [1], the “Test F Solubility” value is over 80.9 µg/mL. In data set [1], `Oc1cc(C(F)(F)F)ccc1-c1nnc(N[C@@H]2CCC[C@H](O)C2)c2ccncc12` [Example 43, 2-[1-[[(1R,3S)-3-hydroxycyclohexyl]amino]pyrido[3,4-d]pyridazin-4-yl]-5-(trifluoromethyl)phenol] returned a solubility of 37.3 µg/mL (≈ 92.2 µM).

On to `C[C@]1(O)C[C@@H](Nc2nnc(-c3c(O)cccc3F)c3ccncc23)C1` [Example 64, 3-fluoro-2-(4-(((1s,3s)-3-hydroxy-3-methylcyclobutyl)amino)pyrido[3,4-d]pyridazin-1-yl)phenol], for which the solubility in data set [1] is over 68.1 µg/mL. At Human NLRP3, this molecule had a half-maximal inhibitory concentration (IC50) of 111 nM.

In turn, `CCc1ccc(-c2nnc(N[C@@H]3CCC[C@H](O)C3)c3cnccc23)c(O)c1` [Example 51, 5-ethyl-2-[4-[[(1R,3S)-3-hydroxycyclohexyl]amino]pyrido[3,4-d]pyridazin-1-yl]phenol] showed a solubility in data set [1] of over 72.9 µg/mL. The molecule further displayed a concentration for half-maximal inhibition (IC50) at Human NLRP3 (setting [2]) of 4 nM. In the same order, the values of `OC[C@@H](O)CNc1nnc(-c2ccc(Cl)c(F)c2O)c2ccccc12` [Example 2, (2S)-3-[[4-(4-chloro-3-fluoro-2-hydroxy-phenyl)phthalazin-1-yl]amino]propane-1,2-diol] are 24.6 µg/mL (≈ 67.6 µM) and 165 nM.

In turn, `Cc1ccc2c(-c3ccc(C(F)(F)F)cc3O)nnc(N[C@@H]3CCC[C@H](O)C3)c2n1` [Example 91, 2-[8-[[(1R,3S)-3-hydroxycyclohexyl]amino]-2-methyl-pyrido[2,3-d]pyridazin-5-yl]-5-(trifluoromethyl)phenol] came in with a solubility in data set [1] of 0.5 µg/mL (≈ 1.19 µM). The half-maximal inhibitory concentration (IC50) against Human NLRP3 (setting [2]) came to 10 nM.

Regarding `Oc1cc(C(F)(F)F)ccc1-c1nnc(N[C@H]2CC[C@@H](O)C2)c2ccccc12` (single isomer, unassigned) [Example 34], in data set [1], the solubility is 9.3 µg/mL (≈ 23.9 µM). 18 nM corresponded to half-maximal inhibition against Human NLRP3 (setting [2]) (IC50).

In the case of `CC(C)(O)CNc1nnc(-c2ccc(OC(F)(F)F)cc2O)c2ccncc12` [Example 72, 2-[4-[(2-hydroxy-2-methyl-propyl)amino]pyrido[3,4-d]pyridazin-1-yl]-5-(trifluoromethoxy)phenol], in data set [1], the solubility was 5.8 µg/mL (≈ 14.7 µM). On Human NLRP3 (setting [2]), this molecule had an IC50 of 22 nM. Taken in the same sequence, the figures for `Oc1cccc(C(F)(F)F)c1-c1nnc(N[C@@H]2CCC[C@H](O)C2)c2cnccc12` (single isomer, unassigned) [Example 49] were over 80.9 µg/mL and 405 nM. On to `CS(=O)(=O)c1ccc(-c2nnc(N[C@@H]3CC[C@@H](O)C3)c3ccccc23)c(O)c1` [Example 18, 2-[4-[[(1R,3R)-3-hydroxycyclopentyl]amino]phthalazin-1-yl]-5-methylsulfonyl-phenol], for which the solubility in data set [1] is over 79.9 µg/mL. For the same molecule, at Human NLRP3 (setting [2]), the IC50 was 738 nM.

In the case of `C[C@]1(O)C[C@@H](Nc2nnc(-c3cc(F)c(F)cc3O)c3ccncc23)C1` [Example 66, 4,5-difluoro-2-(4-(((1s,3s)-3-hydroxy-3-methylcyclobutyl)amino)pyrido[3,4-d]pyridazin-1-yl)phenol], the solubility in data set [1] was 3.6 µg/mL (≈ 10 µM). On Human NLRP3, this molecule displayed an IC50 of 570 nM.

As for `OC[C@@H](O)CNc1nnc(-c2c(O)cccc2F)c2ccccc12` [Example 4, (2S)-3-[[4-(2-fluoro-6-hydroxy-phenyl)phthalazin-1-yl]amino]propane-1,2-diol], the solubility in data set [1] is 23.2 µg/mL (≈ 70.4 µM). The 50% inhibitory concentration (IC50) at Human NLRP3 (setting [2]) is over 1000 nM. As to `C[C@]1(O)C[C@@H](Nc2nnc(-c3ccc(OC(F)(F)F)cc3O)c3ccncc23)C1` [Example 63, 2-(4-(((1s,3s)-3-hydroxy-3-methylcyclobutyl)amino)pyrido[3,4-d]pyridazin-1-yl)-5-(trifluoromethoxy)phenol], the solubility in data set [1] came to 0.8 µg/mL (≈ 1.97 µM). This molecule also had an IC50 on Human NLRP3 of 8 nM. As for `CC(C)(O)CNc1nnc(-c2ccc(Cl)cc2O)c2ccncc12` [Example 71, 5-chloro-2-[4-[(2-hydroxy-2-methyl-propyl)amino]pyrido[3,4-d]pyridazin-1-yl]phenol], the solubility in data set [1] worked out at 21.9 µg/mL (≈ 63.5 µM). The same molecule gave an IC50 on Human NLRP3 (setting [2]) of 14 nM. In data set [1], `C[C@]1(O)C[C@@H](Nc2nnc(-c3c(O)cccc3F)c3cccnc23)C1` [Example 90, 3-fluoro-2-(8-(((1s,3s)-3-hydroxy-3-methylcyclobutyl)amino)pyrido[2,3-d]pyridazin-5-yl)phenol] had a solubility of over 68.1 µg/mL. The midpoint of inhibition on Human NLRP3, the IC50, lay at 551 nM.

`Oc1cccc(F)c1-c1nnc(N[C@@H]2CCC[C@H](O)C2)c2cnccc12` [Example 47, 3-fluoro-2-[4-[[(1R,3S)-3-hydroxycyclohexyl]amino]pyrido[3,4-d]pyridazin-1-yl]phenol]: in data set [1], the solubility was over 70.9 µg/mL. This molecule also showed an IC50 on Human NLRP3 (setting [2]) of 68 nM. On to `Oc1cccc(C(F)(F)F)c1-c1nnc(N[C@@H]2CCC[C@H](O)C2)c2cnccc12` (single isomer, unassigned) [Example 50], for which the IC50 on Human NLRP3 (setting [2]) turned out to be 47 nM. Turning to `OC[C@@H](O)CNc1nnc(-c2c(O)cccc2Cl)c2ccccc12` [Example 10, (2S)-3-[[4-(2-chloro-6-hydroxy-phenyl)phthalazin-1-yl]amino]propane-1,2-diol], the solubility in data set [1] is 62.9 µg/mL (≈ 182 µM). The same molecule showed a half-maximal inhibitory concentration (IC50) on Human NLRP3 (setting [2]) of 434 nM. `Oc1cc(C(F)(F)F)ccc1-c1nnc(N[C@H]2CCC[C@H](O)C2)c2ccccc12` (single isomer, unassigned) [Example 29]: the “Test F Solubility” value in data set [1] is 16.1 µg/mL.

`OC[C@@H](O)CNc1nnc(-c2ccc(C(F)(F)F)cc2O)c2ccncc12` [Example 88, (2S)-3-[[1-[2-hydroxy-4-(trifluoromethyl)phenyl]pyrido[3,4-d]pyridazin-4-yl]amino]propane-1,2-diol]: the solubility in data set [1] was over 76.1 µg/mL. Consider `OC[C@@H](O)CNc1nnc(-c2c(O)cc(F)cc2F)c2ccccc12` [Example 8, (2S)-3-[[4-(2,4-difluoro-6-hydroxy-phenyl)phthalazin-1-yl]amino]propane-1,2-diol], for which the solubility in data set [1] came out at 11.8 µg/mL (≈ 34 µM). In addition, the IC50 on Human NLRP3 (setting [2]) is 159 nM. Taken in the same sequence, the figures for `Cc1ccc(O)c(-c2nnc(NC[C@H](O)CO)c3ccccc23)c1` [Example 13, (2S)-3-[[4-(2-hydroxy-5-methyl-phenyl)phthalazin-1-yl]amino]propane-1,2-diol] were over 65.1 µg/mL and over 10000 nM. Take `OC[C@H](O)CNc1nnc(-c2ccc(C(F)(F)F)cc2O)c2ccccc12` [Example 12, (2R)-3-[[4-[2-hydroxy-4-(trifluoromethyl)phenyl]phthalazin-1-yl]amino]propane-1,2-diol]: the solubility in data set [1] is 36.4 µg/mL (≈ 96 µM).

`Oc1cc(C(F)(F)F)ccc1-c1nnc(N[C@@H]2CCC[C@H](O)C2)c2ncccc12` [Example 89, 2-[8-[[(1R,3S)-3-hydroxycyclohexyl]amino]pyrido[2,3-d]pyridazin-5-yl]-5-(trifluoromethyl)phenol] had a solubility in data set [1] of 22.1 µg/mL (≈ 54.6 µM).
